Read-outs that look alike come from different tables or passages of the source.
What was measured:
[1] = target: human vasopressin V1a receptor (Homo sapiens, UniProt P37288); experiment: Vasopressin V1a receptor binding assay; conditions: selectivity for human V1b over human V1a, quotient of binding constants
[2] = target: T1, human vasopressin V1b receptor (Homo sapiens, UniProt P47901); experiment: biochemical; conditions: Ki(h-V1b)* [nM], CHO-K1 cell membranes, displacement of 3H-AVP
T1 sequence (P47901 1-424): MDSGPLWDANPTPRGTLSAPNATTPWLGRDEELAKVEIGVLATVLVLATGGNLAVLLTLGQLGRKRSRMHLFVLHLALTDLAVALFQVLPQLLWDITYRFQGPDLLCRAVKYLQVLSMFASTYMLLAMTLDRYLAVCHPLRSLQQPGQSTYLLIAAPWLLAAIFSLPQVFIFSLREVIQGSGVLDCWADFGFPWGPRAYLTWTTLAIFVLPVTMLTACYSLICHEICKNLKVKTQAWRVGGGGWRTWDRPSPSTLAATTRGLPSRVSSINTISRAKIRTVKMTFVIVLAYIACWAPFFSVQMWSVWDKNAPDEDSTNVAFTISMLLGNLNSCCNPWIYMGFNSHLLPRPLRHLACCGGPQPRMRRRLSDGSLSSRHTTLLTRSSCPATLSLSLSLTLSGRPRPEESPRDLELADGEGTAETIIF

[3] = target: T1, human vasopressin V1b receptor; conditions: read-out: Ki(h-V1b)*, CHO-K1 cell membranes, displacement of 3H-AVP

Sequence of human vasopressin V1a receptor (P37288 whole entry): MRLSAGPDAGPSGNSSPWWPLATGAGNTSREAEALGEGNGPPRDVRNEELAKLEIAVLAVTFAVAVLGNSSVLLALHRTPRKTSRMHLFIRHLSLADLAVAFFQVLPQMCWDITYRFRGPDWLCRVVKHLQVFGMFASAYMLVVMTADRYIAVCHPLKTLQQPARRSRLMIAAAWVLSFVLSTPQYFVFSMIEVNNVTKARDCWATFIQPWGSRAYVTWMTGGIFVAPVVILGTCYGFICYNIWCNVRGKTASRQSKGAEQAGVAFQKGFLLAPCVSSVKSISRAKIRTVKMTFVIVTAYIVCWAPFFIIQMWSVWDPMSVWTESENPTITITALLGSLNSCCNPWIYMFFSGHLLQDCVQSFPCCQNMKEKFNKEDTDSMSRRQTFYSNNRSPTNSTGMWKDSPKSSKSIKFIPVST

Structure (SMILES) | Ki(h-V1a)/Ki(h-V1b) [1] | Ki [2] [nM] | Ki [3] [nM]
CCOc1ncccc1[C@]1(NC(=O)C2CC3(C2)CN(C2CN(C)C2)C3)C(=O)N(S(=O)(=O)c2ccc(OC)cc2)c2ccc(C#N)cc21 [Example 46, N-[(3S)-5-Cyano-3-(2-ethoxy-3-pyridyl)-1-(4-methoxyphenyl)sulfonyl-2-oxo-indolin-3-yl]-6-(1-methylazetidin-3-yl)-6-azaspiro[3.3]heptane-2-carboxamide] | + (10-<25) | 1 to 10 | 
CCOc1ccccc1[C@]1(NC(=O)N2CC3(C2)CN(C2CCN(C(C)C)CC2)C3)C(=O)N(S(=O)(=O)c2ccc(C)cc2)c2ccc(C#N)cc21 [Example 41, N-[(3S)-5-Cyano-3-(2-ethoxyphenyl)-2-oxo-1-(p-tolylsulfonyl)indolin-3-yl]-2-(1-isopropyl-4-piperidyl)-2,6-diazaspiro[3.3]heptane-6-carboxamide] | +++ (>75) | 10 to 100 | 
CCOc1ncccc1[C@]1(NC(=O)N2CC3(CN(CCN(CC)CC)C3)C2)C(=O)N(S(=O)(=O)c2ccc(OC)cc2)c2ccc(C#N)cc21 [Example 9, N-[(3S)-5-Cyano-3-(2-ethoxy-3-pyridyl)-1-(4-methoxyphenyl)sulfonyl-2-oxo-indolin-3-yl]-2-(2-diethylaminoethyl)-2,6-diazaspiro[3.3]heptane-6-carboxamide] | +++ (>75) | 1 to 10 | 
CCOc1ccccc1[C@]1(NC(=O)N2CC3(C2)CN(C2CCN(C)CC2)C3)C(=O)N(S(=O)(=O)c2ccc(OC)cc2OC)c2ccc(C#N)cc21 [Example 39B, N-[(3S)-5-Cyano-1-(2,4-dimethoxyphenyl)sulfonyl-3-(2-ethoxyphenyl)-2-oxo-indolin-3-yl]-2-(1-methyl-4-piperidyl)-2,6-diazaspiro[3.3]heptane-6-carboxamide] | ++ (25-75) | 10 to 100 | 
CCOc1ncccc1[C@]1(NC(=O)N2CC3(CN(CCN4CCOCC4)C3)C2)C(=O)N(S(=O)(=O)c2ccc(OC)cc2F)c2ccc(C#N)cc21 [Example 18, N-[(3S)-5-Cyano-3-(2-ethoxy-3-pyridyl)-1-(2-fluoro-4-methoxy-phenyl)sulfonyl-2-oxo-indolin-3-yl]-2-(2-morpholinoethyl)-2,6-diazaspiro[3.3]heptane-6-carboxamide] | +++ (>75) | < 1 | 
CCOc1ncccc1[C@]1(NC(=O)N2CC3(CN(CCN4CCOCC4)C3)C2)C(=O)N(S(=O)(=O)c2ccc(F)cc2OC)c2ccc(C#N)cc21 [Example 3, N-[(3S)-5-Cyano-3-(2-ethoxy-3-pyridyl)-1-(4-fluoro-2-methoxy-phenyl)sulfonyl-2-oxo-indolin-3-yl]-2-(2-morpholinoethyl)-2,6-diazaspiro[3.3]heptane-6-carboxamide] | +++ (>75) |  | 1 to 10
CCOc1ncccc1[C@]1(NC(=O)N2CC3(CN(CCN4CCOCC4)C3)C2)C(=O)N(S(=O)(=O)c2ccc(F)cc2)c2ccc(C#N)cc21 [Example 8, N-[(3S)-5-Cyano-3-(2-ethoxy-3-pyridyl)-1-(4-fluorophenyl)sulfonyl-2-oxo-indolin-3-yl]-2-(2-morpholinoethyl)-2,6-diazaspiro[3.3]heptane-6-carboxamide] | ++ (25-75) | 10 to 100 | 
CCOc1ncccc1[C@]1(NC(=O)N2CC3(C2)CN(C2CCN(C(C)C)CC2)C3)C(=O)N(S(=O)(=O)c2ccc(F)cc2)c2ccc(C#N)cc21 [Example 27, N-[(3S)-5-Cyano-3-(2-ethoxy-3-pyridyl)-1-(4-fluorophenyl)sulfonyl-2-oxo-indolin-3-yl]-2-(1-isopropyl-4-piperidyl)-2,6-diazaspiro[3.3]heptane-6-carboxamide] | +++ (>75) | 10 to 100 | 
CCOc1ncccc1[C@]1(NC(=O)N2CC3(C2)CN(C2CCN(C)CC2)C3)C(=O)N(S(=O)(=O)c2ccccc2OC)c2ccc(C#N)cc21 [Example 32, N-[(3S)-5-Cyano-3-(2-ethoxy-3-pyridyl)-1-(2-methoxyphenyl)sulfonyl-2-oxo-indolin-3-yl]-2-(1-methyl-4-piperidyl)-2,6-diazaspiro[3.3]heptane-6-carboxamide] | ++ (25-75) | 10 to 100 | 
COc1ccc(S(=O)(=O)N2C(=O)[C@@](NC(=O)N3CC4(CN(CCN5CCOCC5)C4)C3)(c3cccnc3OC)c3cc(C#N)ccc32)cc1.O=C(O)C(F)(F)F [Example 12, N-[(3S)-5-Cyano-1-(4-methoxyphenyl)sulfonyl-3-(2-methoxy-3-pyridyl)-2-oxo-indolin-3-yl]-2-(2-morpholinoethyl)-2,6-diazaspiro[3.3]heptane-6-carboxamide; 2,2,2-trifluoroacetic acid] | + (10-<25) | 1 to 10 | 
CCOc1ncccc1[C@]1(NC(=O)N2CC3(CN(CCN4CCOCC4)C3)C2)C(=O)N(S(=O)(=O)c2ccc(OC)cc2)c2cc(F)c(C#N)cc21 [Example 19, N-[(3S)-5-Cyano-3-(2-ethoxy-3-pyridyl)-6-fluoro-1-(4-methoxyphenyl)sulfonyl-2-oxo-indolin-3-yl]-2-(2-morpholinoethyl)-2,6-diazaspiro[3.3]heptane-6-carboxamide] | +++ (>75) | 1 to 10 | 
CCOc1ncccc1[C@]1(NC(=O)N2CC3(CN(CCN4CCOCC4)C3)C2)C(=O)N(S(=O)(=O)c2ccc(C#N)cc2)c2ccc(C#N)cc21 [Example 5, N-[(3S)-5-cyano-1-(4-cyanophenyl)sulfonyl-3-(2-ethoxy-3-pyridyl)-2-oxo-indolin-3-yl]-2-(2-morpholinoethyl)-2,6-diazaspiro[3.3]heptane-6-carboxamide] | +++ (>75) | 10 to 100 | 

Source: US9527856B2, “Oxindole compounds carrying a CO-bound spiro substituent and use thereof for treating vasopressin-related diseases” (AbbVie Deutschland GmbH & Co. KG, priority 2014, dated 2016)
